# According to patent publication US7217710B2, “Substituted pyrazolopyrimidines” (SmithKline Beecham Corporation, priority 2001, dated 2007):
# Experiments:
# [1] = biological target: T1, GST-TIE2 (intracellular domains of human TIE2) (Homo sapiens, UniProt Q02763); assay: TIE-2 Enzyme Assay (TIE2-E2), LANCE method; type: biochemical; conditions: read-out: TIE2 PIC50 TIE2-E2 assay
# T1 construct: made in house
# Source text: TIE-2 Enzyme Assay (TIE2-E2
# The TIE-2 enzyme assay uses the LANCE method (Wallac) and GST-TIE2, baculovirus-expressed recombinant constructs of the intracellular domains of human TIE2 (amino acids 762–1104, GenBank Accession # L06139) tagged by GST). The method measures the ability of the purified enzymes to catalyse the transfer of the γ-phosphate from ATP onto tyrosine residues in a biotinylated synthetic peptide, D1–15 (biotin-C6-LEARLVAYEGWVAGKKKamide). This peptide phosphorylation is detected using the following procedure: for enzyme preactivation, GST-TIE2 is incubated for 2 hours at room temperature with 80 μM ATP, 10 mM MgCl2, 0.1 mg/ml BSA, 0.01% Tween 20 and 1 mM DTT in 100 mM HEPES buffer (pH7.4). 5 nM preactivated GST-TIE2 is incubated for 2 hours at room temperature in 96 well plates with 1 uM D1–15 peptide, 80 uM ATP, 10 mM MgCl2, 0.1 mg/ml BSA, 0.01% Tween 20 and titrated test compound (diluted from a 10 mM stock in DMSO, final DMSO concentration is 2.4%) in 100 mM HEPES (pH7.4). The reaction is stopped by the addition of EDTA (final concentration 45 mM). Streptavidin linked-APC (allophycocyanin, PerkinElmer) and europium-labeled anti-phosphotyrosine antibody (PerkinElmer) are then added at the final concentration of 8 nM and 1 nM, respectively. The APC signal is measured using an Wallac Multilabel 1420 counter. (Wallac Berthold Japan). The percent inhibition of activity is calculated relative to blank control wells. The concentration of test compound that inhibits 50% of activity (IC50) is interpolated using nonlinear regression (Levernberg-Marquardt) and the equation, y=Vmax (1−x/(K+x))+Y2, where “K” is equal to the IC50. The IC50 values are converted to pIC50 values, i.e., −log IC50 in Molar concentration.
# [2] = biological target: T2, catalytic domain of human VEGFR3 (Homo sapiens, UniProt P35916, H890Q); assay: VEGFR-3 Homogenous Time-Resolved Fluorescence Assay (VEGFR-3-HTRF); type: biochemical; conditions: read-out: VEGFR3 PIC50 VEGFR-3-HTRF assay
# T2 construct: made in house; host or cells: Sf9 insect cells (baculovirus, pFastBac1)
# T2 sequence (P35916 with tags, fused parts or gaps isoform P35916-1 H890Q): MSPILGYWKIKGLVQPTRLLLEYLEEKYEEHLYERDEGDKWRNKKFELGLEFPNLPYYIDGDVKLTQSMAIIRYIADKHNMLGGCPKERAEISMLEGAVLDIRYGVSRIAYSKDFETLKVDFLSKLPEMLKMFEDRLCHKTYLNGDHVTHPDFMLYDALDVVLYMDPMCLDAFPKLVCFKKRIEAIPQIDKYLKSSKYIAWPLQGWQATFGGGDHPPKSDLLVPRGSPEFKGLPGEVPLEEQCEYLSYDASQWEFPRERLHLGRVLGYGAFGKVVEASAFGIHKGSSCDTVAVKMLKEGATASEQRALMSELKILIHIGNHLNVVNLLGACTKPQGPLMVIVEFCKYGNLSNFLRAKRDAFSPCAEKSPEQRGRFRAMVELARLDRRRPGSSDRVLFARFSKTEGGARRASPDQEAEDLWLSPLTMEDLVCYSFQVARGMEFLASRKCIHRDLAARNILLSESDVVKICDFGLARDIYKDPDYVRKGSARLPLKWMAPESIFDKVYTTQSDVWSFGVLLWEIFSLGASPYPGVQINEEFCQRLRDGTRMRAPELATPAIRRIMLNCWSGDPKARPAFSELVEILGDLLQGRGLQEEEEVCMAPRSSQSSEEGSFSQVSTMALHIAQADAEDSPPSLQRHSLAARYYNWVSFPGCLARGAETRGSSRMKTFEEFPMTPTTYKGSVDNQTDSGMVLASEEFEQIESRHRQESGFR
# Source text: VEGFR—3-Homogenous Time-Resolved Fluorescence Assay (VEGFR-3-HTRF)
# This assay assesses Vascular Endothelial Growth Factor 3 (VEGFR3) tyrosine kinase inhibitory activity in substrate phosphorylation assays. The assay examines the ability of small molecule organic compounds to inhibit the tyrosine phosphorylation of a peptide substrate.
# The substrate phosphorylation assays use the VEGFR3 catalytic domain, which is expressed in Sf. 9 insect cells as an amino-terminal GST-tagged fusion protein. The catalytic domain of human VEGFR3 (AA residues #819–1298 based upon GenBank Accession #XM003852) is cloned by PCR from human Placenta Marathon Ready cDNA (Clontech). The PCR product is subcloned into pFastBac1 vector containing an N-terminal GST tag. The resulting pFB/GST/VEGFR3icd vector is used to generate a recombinant baculovirus for protein expression. The VEGFR3 catalytic domain translated sequence is:
# Autophosphorylation allows enzymes to be fully activated prior to addition to peptide substrates. The assays are performed using enzyme that has been activated by autophosphorylation via preincubation in buffer with ATP and magnesium. Activated enzyme is then diluted and added to titrated compound and the substrate mix.
# 200 nM VEGFR3 enzyme is activated for 45 minutes at room temperature by incubating the enzyme in buffer containing 100 mM HEPES (pH7.2), 75 μM ATP, 0.3 mM DTT, 0.1 mg/mL BSA, and 10 mM MgCl2. After activation, VEGFR3 is diluted 100-fold into 2× dilution buffer: 200 mM HEPES (pH 7.5), 0.2 mg/mL BSA, 0.6 mM DTT. 20 μL of the diluted enzyme mix is added to 20 μL of 2× substrate mix (150 μM ATP, 20 mM MgCl2, 0.72 μM biotinylated peptide) in the assay plates. Final assay conditions are: 100 mM HEPES (pH 7.2), 75 μM ATP, 10 mM MgCl2, 0.1 mg/mL BSA, 0.3 mM DTT, 0.36 μM biotinylated peptide, and 1 nM VEGFR3 enzyme. Assay plates are incubated for 1.5 hours at room temperature before the addition of 30 μL 100 mM EDTA to the wells to stop the enzymatic reaction. 40 μL/well of HTRF mix are then added to the assay plates for the detection of phosphorylated substrate. Final assay concentrations are: 100 mM HEPES (pH7.2), 0.1 mg/mL BSA, 15 nM streptavidin-labeled allophycocyanin (PerkinElmer), and 1 nM europium-labeled anti-phosphotyrosine antibody (PerkinElmer). Assay plates are left unsealed and are counted in a Wallac Multilabel Counter 1420 (PerkinElmer).
# The data for dose responses are plotted as % Control calculated with the data reduction formula 100*(U1–C2)/(C1–C2) versus concentration of compound where U is the unknown value, C1 is the average control value obtained for DMSO , and C2 is the average control value obtained for 0.1M EDTA. Data are fitted to the curve described by: y=((Vmax*x)/(K+x)) where Vmax is the upper asymptote and K is the IC50.
# T1 sequence (Q02763 762-1104): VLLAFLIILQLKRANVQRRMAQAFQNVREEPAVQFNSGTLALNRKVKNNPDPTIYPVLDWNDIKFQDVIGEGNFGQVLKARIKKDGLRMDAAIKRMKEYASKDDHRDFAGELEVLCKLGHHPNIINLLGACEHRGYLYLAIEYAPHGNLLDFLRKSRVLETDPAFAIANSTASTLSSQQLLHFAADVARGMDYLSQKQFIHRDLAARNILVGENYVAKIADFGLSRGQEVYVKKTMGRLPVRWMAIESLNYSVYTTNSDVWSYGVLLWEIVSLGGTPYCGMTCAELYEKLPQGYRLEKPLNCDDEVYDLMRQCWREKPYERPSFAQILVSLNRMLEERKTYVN
SMILES,IC50 [1] [nM],IC50 [2] [nM]
"CC1CCCCN1CCCNc1ncc2c(-c3ccc(NS(=O)(=O)c4cccc(Cl)c4Cl)cc3)nn(C)c2n1 (centres unmarked) [Example 104, 2,3-Dichloro-N-(4-{1-methyl-6-[3-(2-methyl-piperidin-1-yl)-propylamino]-1H-pyrazolo[3,4-d]pyrimidin-3-yl)-phenyl}-benzenesulfonamide]",> 10000,
"Cn1nc(-c2ccc(NS(=O)(=O)c3cccc(Cl)c3Cl)cc2)c2cnc(NCCCN3CCCC3)nc21 [Example 105, 2,3-Dichloro-N-{4-[1-methyl-6-(3-pyrrolidin-1-yl-propylamino)-1H-pyrazolo[3,4-d]pyrimidin-3-yl]-phenyl}-benzenesulfonamide]",> 10000,
"CN(C)CCCNc1ncc2c(-c3ccc(NS(=O)(=O)c4cccc(Cl)c4Cl)cc3)nn(C)c2n1 [Example 106, 2,3-Dichloro-N-{4-[1-methyl-6-(3-dimethylamino-propylamino)-1H-pyrazolo[3,4-d]pyrimidin-3-yl]-phenyl}-benzenesulfonamide]",> 10000,
"CN1CCCC1CCNc1ncc2c(-c3ccc(NS(=O)(=O)c4cccc(Cl)c4Cl)cc3)nn(C)c2n1 (centres unmarked) [Example 108, 2,3-Dichloro-N-(4-{1-methyl-6-[2-(1-methyl-pyrrolidin-2-yl)-ethylamino]-1H-pyrazolo[3,4-d]pyrimidin-3-yl]-phenyl}-benzenesulfonamide]",> 10000,
"Cn1nc(-c2ccc(NS(=O)(=O)c3cccc(Cl)c3Cl)cc2)c2cnc(NCCCCN3CCCC3)nc21 [Example 110, 2,3-Dichloro-N-{4-[1-methyl-6-(4-pyrrolidin 1-yl-butylamino)-1H-pyrazolo[3,4-d]pyrimidin-3-yl]-phenyl}-benzenesulfonamide]",> 10000,
"CC(=O)NCCNc1ncc2c(-c3ccc(NS(=O)(=O)c4cccc(Cl)c4Cl)cc3)nn(C)c2n1 [Example 115, 2,3-Dichloro-N-{4-[1-methyl-6-(2-acetylamino-ethylamino)-1H-pyrazolo[3,4-d]pyrimidin-3-yl]-phenyl}-benzenesulfonamide]",> 10000,1000 to 10000
"Cn1nc(-c2ccc(NS(=O)(=O)c3cccc(Cl)c3Cl)cc2)c2cnc(NCCCn3ccnc3)nc21 [Example 116, 2,3-Dichloro-N-{4-[1-methyl-6-(3-imidazol-1-yl-propylamino)-1H-pyrazolo[3,4-d]pyrimidin-3-yl]-phenyl}-benzenesulfonamide]",> 10000,> 10000
"Cn1cccc1CCNc1ncc2c(-c3ccc(NS(=O)(=O)c4cccc(Cl)c4Cl)cc3)nn(C)c2n1 [Example 117, 2,3-Dichloro-N-(4-{1-methyl-6-[2-(1-methyl-1H-pyrrol-2-yl)ethylamino]-1H-pyrazolo[3,4-d]pyrimidin-3-yl]-phenyl}-benzenesulfonamide]",,1000 to 10000
"Cn1nc(-c2ccc(NS(=O)(=O)c3cccc(Cl)c3Cl)cc2)c2cnc(NC(CO)CO)nc21 [Example 118, 2,3-Dichloro-N-{4-[1-methyl-6-(2-hydroxy-1-hydroxymethyl-ethylamino)-1H-pyrazolo[3,4-d]pyrimidin-3-yl]-phenyl}-benzenesulfonamide]",> 10000,
"Cn1nc(-c2ccc(NS(=O)(=O)c3cccc(Cl)c3Cl)cc2)c2cnc(NCCCCNC(=N)N)nc21 [Example 121, 2,3-Dichloro-N-{4-[1-methyl-6-(4-guanidino-butylamino)-1H-pyrazolo[3,4-d]pyrimidin-3-yl]-phenyl}-benzenesulfonamide]",1000 to 10000,> 10000
CCNc1ncc2c(-c3ccc(NC(=O)Nc4ccc(C(F)(F)F)cc4F)cc3)nn(C)c2n1 [Example 162],1000 to 10000,

# Other lines, results leading:
IC50 [1] [nM],IC50 [2] [nM],SMILES
≤ 39.8,1000 to 10000,"Cn1nc(-c2ccc(NC(=O)Nc3cccc(C(F)(F)F)c3)cc2)c2cnc(NCCN3CCOCC3)nc21 [Example 42, 1-{4-[1-Methyl-6-(2-morpholin-4-yl-ethylamino)-1H-pyrazolo[3,4-d]pyrimidin-3-yl]-phenyl}-3-(3-trifluoromethyl-phenyl)-urea]"
1000 to 10000,> 10000,"CN1CCN(CCCNc2ncc3c(-c4ccc(NS(=O)(=O)c5cccc(Cl)c5Cl)cc4)nn(C)c3n2)CC1 [Example 111, 2,3-Dichloro-N-(4-{1-methyl-6-[3-(4-methyl-piperazin-1-yl)-propylamino]-1H-pyrazolo[3,4-d]pyrimidin-3-yl]-phenyl}-benzenesulfonamide]"
1000 to 10000,> 10000,"Cn1nc(-c2ccc(NS(=O)(=O)c3cccc(Cl)c3Cl)cc2)c2cnc(NCCCN)nc21 [Example 119, 2,3-Dichloro-N-{4-[1-methyl-6-(3-amino-propylamino)-1H-pyrazolo[3,4-d]pyrimidin-3-yl]-phenyl}-benzenesulfonamide]"
1000 to 10000,,"Cn1nc(-c2ccc(NS(=O)(=O)c3cccc(Cl)c3Cl)cc2)c2cnc(NCCCCN)nc21 [Example 120, 2,3-Dichloro-N-{4-[1-methyl-6-(4-amino-butylamino)-1H-pyrazolo[3,4-d]pyrimidin-3-yl]-phenyl}-benzenesulfonamide]"
≤ 39.8,,Cn1nc(-c2ccc(NC(=O)Nc3cc(C(F)(F)F)ccc3F)c(F)c2)c2cnc(NCCCN3CCOCC3)nc21 [Example 127]
≤ 39.8,,CC1CCCCN1CCCNc1ncc2c(-c3ccc(NC(=O)Nc4cc(C(F)(F)F)ccc4F)c(F)c3)nn(C)c2n1 (centres unmarked) [Example 128]
≤ 39.8,,CCN(CC)CCCNc1ncc2c(-c3ccc(NC(=O)Nc4cc(C(F)(F)F)ccc4F)c(F)c3)nn(C)c2n1 [Example 129]
≤ 39.8,,CN1CCCC1CCNc1ncc2c(-c3ccc(NC(=O)Nc4cc(C(F)(F)F)ccc4F)c(F)c3)nn(C)c2n1 (centres unmarked) [Example 130]
≤ 39.8,,CN1CCN(CCCNc2ncc3c(-c4ccc(NC(=O)Nc5cc(C(F)(F)F)ccc5F)c(F)c4)nn(C)c3n2)CC1 [Example 131]
39.8 to 100,100 to 1000,"Cn1nc(-c2ccc(NC(=O)Nc3cc(C(F)(F)F)ccc3F)cc2)c2cnc(NCCc3ccncc3)nc21 [Example 140, 1-(2-Fluoro-5-trifluoromethyl-phenyl)-3-{4-[(1-methyl-6-(2-pyridin-4-yl-ethylamino)-1H-pyrazolo[3,4-d]pyrimidin-3-yl]-phenyl]} urea]"
100 to 1000,> 10000,Cn1nc(-c2ccc(NC(=O)Nc3cc(C(F)(F)F)ccc3F)cc2)c2cnc(NCCc3cccnc3)nc21 [Example 141]
100 to 1000,,Cn1nc(-c2ccc(NC(=O)Nc3cc(C(F)(F)F)ccc3F)cc2)c2cnc(NCCc3ccccn3)nc21 [Example 142]
100 to 1000,,"Cn1nc(-c2ccc(NC(=O)Nc3cc(C(F)(F)F)ccc3F)cc2)c2cnc(NCc3cccnc3)nc21 [Example 144, 1-(2-Fluoro-5-trifluoromethyl-phenyl)-3-{4-[(1-methyl-6-(pyridin-3-ylmethyl)-amino)-1H-pyrazolo[3,4-d]pyrimidin-3-yl]-phenyl} urea]"
